Measured values published in patent US6355799B1, “Substituted benzene compounds, process for their preparation, and herbicidal and defoliant compositions containing them” (ISK Americas Incorporated, priority 1997, dated 2002).

Experiments:
Format in all cases: in vivo
[1] = test system: large crabgrass (Digitaria sanguinalis, DIGSA); assay: Pre-emerge test, greenhouse herbicide activity screening; settings: phytotoxicity rating 0-100, 14 days after application
Procedure, shortened: (§1)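 Herbicidal damage is scored 0 (none) to 100 (complete plant death) two weeks after a simulated field spray. Rates span 15–1000 g ai/ha, delivered in acetone at 187 l/ha. For post-emergence treatments, plants have 2–3 leaves and the spray carries 0.25% v/v non-ionic surfactant.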

[2] = test system: green foxtail (Setaria viridis, SETVI); assay: as above; settings: phytotoxicity rating 0-100, 14 days after application
Procedure, shortened: as §1

[3] = test system: johnsongrass (Sorghum halepense, SORHA); assay: as above; settings: phytotoxicity rating 0-100, 14 days after application
Procedure, shortened: as §1

[4] = test system: velvetleaf (Abutilon theophrasti, ABUTH); assay: as above; settings: phytotoxicity rating 0-100, 14 days after application
Procedure, shortened: as §1

[5] = test system: barnyardgrass (Echinochloa crus-galli, ECHCG); assay: as above; settings: phytotoxicity rating 0-100, 14 days after application
Procedure, shortened: as §1

[6] = test system: ivyleaf morningglory (Ipomoea hederacea, IPOHE); assay: as above; settings: phytotoxicity rating 0-100, 14 days after application
Procedure, shortened: as §1

[7] = test system: sicklepod (Cassia obtusifolia, CASOB); assay: as above; settings: phytotoxicity rating 0-100, 14 days after application
Procedure, shortened: as §1

[8] = test system: lambsquarters (Chenopodium album, CHEAL); assay: as above; settings: phytotoxicity rating 0-100, 14 days after application
Procedure, shortened: as §1

[9] = test system: field corn (Zea mays L., var. Dekalb 535, CORN); assay: Post-emerge test, crop safety; settings: post-emerge, 14 days after application, rating scale 0-100
Procedure, shortened: as §1

[10] = test system: upland rice (Oryza sp., var. Tebonnet, RICE); assay: Post-emerge test, crop safety; settings: post-emerge, 14 days after application, rating scale 0-100
Procedure, shortened: as §1

[11] = test system: large crabgrass (Digitaria sanguinalis, DIGSA); assay: Post-emerge test, greenhouse herbicide activity screening; settings: post-emerge, 14 days after application, rating scale 0-100
Procedure, shortened: (§2)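 Plants grown in 10 cm pots of sandy loam mix received acetone-dissolved compounds through a moving flat-fan nozzle. Doses ranged from 15 to 1000 g ai/ha. Pre-emerge pots were seeded one day earlier, post-emerge pots 8–21 days earlier. Fourteen days on, each pot was graded 0–100 for damage.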

[12] = test system: green foxtail (Setaria viridis, SETVI); assay: as above; settings: post-emerge, 14 days after application, rating scale 0-100
Procedure, shortened: as §2

[13] = test system: johnsongrass (Sorghum halepense, SORHA); assay: as above; settings: post-emerge, 14 days after application, rating scale 0-100
Procedure, shortened: as §2

[14] = test system: velvetleaf (Abutilon theophrasti, ABUTH); assay: as above; settings: post-emerge, 14 days after application, rating scale 0-100
Procedure, shortened: as §2

[15] = test system: ivyleaf morningglory (Ipomoea hederacea, IPOHE); assay: as above; settings: post-emerge, 14 days after application, rating scale 0-100
Procedure, shortened: as §2

[16] = test system: sicklepod (Cassia obtusifolia, CASOB); assay: as above; settings: post-emerge, 14 days after application, rating scale 0-100
Procedure, shortened: as §2

[17] = test system: redroot pigweed (Amaranthus retroflexus, AMARE); assay: as above; settings: post-emerge, 14 days after application
Procedure, shortened: as §2

[18] = test system: lambsquarters (Chenopodium album, CHEAL); assay: as above; settings: post-emerge, 14 days after application, rating scale 0-100
Procedure, shortened: as §2

[19] = test system: field corn (Zea mays L., var. Dekalb 535, CORN); assay: Pre-emerge test, crop safety; settings: crop damage rating 0-100, 14 days after application
Procedure, shortened: (§3)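 Compounds in acetone were track-sprayed at 187 l/ha, 15–1000 g ai/ha, onto sandy loam pots. Pre-emerge seeds were sown one day before spraying, with surface watering afterwards. Post-emerge plants were at the 2–3 leaf stage and sprayed with 0.25% v/v non-ionic surfactant. Injury was rated 0–100 at 14 days.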

[20] = test system: upland rice (Oryza sp., var. Tebonnet, RICE); assay: Pre-emerge test, crop safety; settings: crop damage rating 0-100, 14 days after application
Procedure, shortened: as §3

[21] = test system: redroot pigweed (Amaranthus retroflexus, AMARE); assay: Pre-emerge test, greenhouse herbicide activity screening; settings: phytotoxicity rating 0-100, 14 days after application
Procedure, shortened: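 Rating: 0–100 visual injury, 14 DAA. Application: acetone, 187 l/ha, 15–1000 g ai/ha, flat-fan track sprayer with nozzle 40–45 cm above soil or canopy. Post-emerge runs used 0.25% v/v surfactant on 2–3 leaf plants.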

COc1c(Cl)cc(F)c(-n2c(=O)cc(C(F)(F)F)n(C)c2=O)c1NC(=O)OCc1c(Cl)cccc1Cl [4-24]
0: Pre-emerge Herbicidal Activity CASOB ([7]; 63 g ai/ha) | Pre-emerge Herbicidal Activity CORN ([19]; 63 g ai/ha)
20: Pre-emerge Herbicidal Activity IPOHE ([6]; 63 g ai/ha) | phytotoxicity rating RICE (crop damage) ([10]; 63 g ai/ha)
35: phytotoxicity rating CORN (crop damage) ([9]; 63 g ai/ha)
5: Pre-emerge Herbicidal Activity CORN ([19]; 250 g ai/ha)
10: Pre-emerge Herbicidal Activity SORHA ([3]; 63 g ai/ha) | Pre-emerge Herbicidal Activity ECHCG ([5]; 63 g ai/ha) | Pre-emerge Herbicidal Activity RICE ([20]; 63 g ai/ha)
70: Pre-emerge Herbicidal Activity DIGSA ([1]; 250 g ai/ha) | phytotoxicity rating CORN (crop damage) ([9]; 250 g ai/ha) | phytotoxicity rating CASOB ([16]; 63 g ai/ha)
30: Pre-emerge Herbicidal Activity DIGSA ([1]; 63 g ai/ha) | Pre-emerge Herbicidal Activity IPOHE ([6]; 250 g ai/ha)
60: phytotoxicity rating SORHA ([13]; 250 g ai/ha)
50: Pre-emerge Herbicidal Activity ABUTH ([4]; 63 g ai/ha) | Pre-emerge Herbicidal Activity ECHCG ([5]; 250 g ai/ha) | phytotoxicity rating DIGSA ([11]; 250 g ai/ha) | phytotoxicity rating SETVI ([12]; 63 g ai/ha) | Pre-emerge Herbicidal Activity RICE ([20]; 250 g ai/ha)
100: Pre-emerge Herbicidal Activity SETVI ([2]; 250 g ai/ha) | Pre-emerge Herbicidal Activity ABUTH ([4]; 250 g ai/ha) | Pre-emerge Herbicidal Activity CHEAL ([8]; 63 g ai/ha) | Pre-emerge Herbicidal Activity CHEAL ([8]; 250 g ai/ha) | phytotoxicity rating ABUTH ([14]; 63 g ai/ha) | phytotoxicity rating ABUTH ([14]; 250 g ai/ha) | phytotoxicity rating IPOHE ([15]; 63 g ai/ha) | phytotoxicity rating IPOHE ([15]; 250 g ai/ha) | phytotoxicity rating CASOB ([16]; 250 g ai/ha) | phytotoxicity rating AMARE ([17]; 63 g ai/ha, rating scale 0-100 (0 no damage, 100 complete death)) | phytotoxicity rating AMARE ([17]; 250 g ai/ha, rating scale 0-100) | phytotoxicity rating CHEAL ([18]; 63 g ai/ha) | phytotoxicity rating CHEAL ([18]; 250 g ai/ha) | Pre-emerge Herbicidal Activity AMARE ([21]; 63 g ai/ha) | Pre-emerge Herbicidal Activity AMARE ([21]; 250 g ai/ha)
40: Pre-emerge Herbicidal Activity SORHA ([3]; 250 g ai/ha) | phytotoxicity rating DIGSA ([11]; 63 g ai/ha) | phytotoxicity rating SORHA ([13]; 63 g ai/ha)
80: Pre-emerge Herbicidal Activity CASOB ([7]; 250 g ai/ha) | phytotoxicity rating SETVI ([12]; 250 g ai/ha)
45: phytotoxicity rating RICE (crop damage) ([10]; 250 g ai/ha)
90: Pre-emerge Herbicidal Activity SETVI ([2]; 63 g ai/ha)
